Test results from US20040121965A1, “Method of treating resistant tumors” (Wyeth Holdings Corporation, priority 2002, published 2004).
Where two headings read alike, the source gives them in different places. Marks after values point to notes of the source that are not given here.

Assays:
KB-HTI-4.0 = experiment: Cell survival assay, KB-3-1 line made resistant to Example 129 (KB-HTI-4.0); assay type: cell-based, human; settings: for IC50: Homo sapiens
HCT-116 = experiment: Cell survival assay (SRB), HCT-116; assay type: cell-based; settings: Homo sapiens
Experimental: (§1) 2.2. Cell Survival Assay: Standard Pharmacological Test Procedure. […] Compounds are incubated with cells for 3 days.

Moser = experiment: Cell survival assay (SRB), Moser; assay type: cell-based; settings: 72 h
Experimental: as §1

[1] = test system: Human Melanoma Carcinoma Lox; settings: for inhibition of growth of Lox melanoma xenografts: day 14, P<0.01; for % T/C on day 7 / % T/C on day 12: Lox, days 1,5,9; for Activity in nude mice animal model (% T/C @ MTD on days 11-15) LOX: staged LOX xenograft, at MTD ('<': MTD not achieved)
A549.EpoB40 = assay type: cell-based; settings: vs A549; below 1 = sensitive
Excerpt: (§2) Cells lines with previously known mechanisms of resistance. […] Res. 8: 207-218,1996); KB-3-1 (parental derived from an epidermoid carcinoma), KB-8.5, KB-V1 (Akiyama S-I, Fojo A, Hanover J A, Pastan I, Gottesman M M. Isolation and genetic characterization of human KB cell lines resistant to multiple drugs. Somatic Cell Mol. Gen., 11: 117-126,1985; Shen D-W, Cardarelli C, Hwang J, Cornwell M, Richert N, Ishii S, Pastan I, Gottesman MM. […] J. Biol. Chem., 261: 7762-7770, 1986); and HL-60 (parental derived from human leukemia) and HL60/AR (McGrath T., Center M. S. Adriamycin resistance in HL60 cells in the absence of detectable P-glycoprotein. Biochem. Res. Commun., 145:1171-1176,1987); A549 and A549.EpoB40 (He L., Yang C.-P.H., Horwitz S. B. Mutations in p-tubulin map to domains involved in regulation of microtubule stability in epothilone-resistant cell lines. Molecular Cancer Therapeutics. 1: 3-10, 2001). HCT-15 human colon carcinoma and DLD-1 human colon carcinoma are obtained from American Tissue Culture Collection. The MX-1W carcinoma is a Wyeth variant orginally obtained as MX-1 breast carcinoma from the National Cancer Institute. Cell lines selected for resistance to Representative Example 129. KB-3-1 cells are selected for resistance to Example 129 by chronically exposing cells to increasing concentrations of Example 129.
2.2. Cell Survival Assay: Standard Pharmacological Test Procedure. The concentration of candidate inhibitor required to inhibit 50% of cell growth (IC50) is done according to previously reported methods. […] Compounds are serially diluted into media as 2× stocks and 100 μl added to cells in duplicate. Compounds are incubated with cells for 3 days. At the end of the incubation period the sulforhodamine B (SRB) assay, which measures protein content as an assessment of cell survival, is performed as described previously (Skehan P, Storeng R, Scudiero D, Monks A, McMahon J, Vistica D, Warren J T, Bokesch H, Kenney S, Boyd MR. New calorimetric cytotoxicity assay for anticancer-drug screening. J Natl Cancer Inst 1990 Jul 4;82(13):1107-12) with some modification as follows. For KB-3-1 cells with 20% FCS, media is gently decanted and replaced with 200 μl of serum-free media mixed with cold 50% TCA for a final concentration of 10% TCA. The plates are incubated for 1 hr at 4° C., followed by washing 5 times in cold distilled water, then air dried overnight. The fixed cells are stained for 10 min with 80 μl of 0.04% SRB solution prepared in 1% glacial acetic acid. Stain is discarded and plates washed 5 times in 1% glacial acetic acid, then air-dried until completely dry. […] Absorbance is read on a Victor V multi-label plate reader (Perkin Elmer, Gaithersburg, Md.).

Lox = experiment: Cell survival assay (SRB), Lox; assay type: cell-based; settings: Homo sapiens, 72 h
Experimental: as §1

DLD-1 tumor = experiment: Growth of tumors in nude mice, DLD-1 xenograft; assay type: in vivo; settings: days 1,5,9
Excerpt: (§3) 2.4. Growth of Tumors in Nude Mice.

KB-8.5 tumor = experiment: Growth of tumors in nude mice, KB-8-5 xenograft; assay type: in vivo; settings: days 1,5,9
Excerpt: as §3

PC3MM2 = experiment: Cell survival assay (SRB), PC3MM2; assay type: cell-based; settings: Homo sapiens
Experimental: as §1

A375 = experiment: Cell survival assay (SRB), A375; assay type: cell-based; settings: Homo sapiens, A-375, 72 h
Experimental: as §1

HCT-15 = experiment: Cell survival assay (SRB), HCT-15; assay type: cell-based; settings: Homo sapiens, HCT-15, 72 h, 3 days
Excerpt: as §2
(§4) 2.2. Cell Survival Assay: Standard Pharmacological Test Procedure. The concentration of candidate inhibitor required to inhibit 50% of cell growth (IC50) is done according to previously reported methods. […] Compounds are serially diluted into media as 2× stocks and 100 μl added to cells in duplicate. Compounds are incubated with cells for 3 days. At the end of the incubation period the sulforhodamine B (SRB) assay, which measures protein content as an assessment of cell survival, is performed as described previously (Skehan P, Storeng R, Scudiero D, Monks A, McMahon J, Vistica D, Warren J T, Bokesch H, Kenney S, Boyd MR. New calorimetric cytotoxicity assay for anticancer-drug screening. J Natl Cancer Inst 1990 Jul 4;82(13):1107-12) with some modification as follows. For KB-3-1 cells with 20% FCS, media is gently decanted and replaced with 200 μl of serum-free media mixed with cold 50% TCA for a final concentration of 10% TCA. The plates are incubated for 1 hr at 4° C., followed by washing 5 times in cold distilled water, then air dried overnight. The fixed cells are stained for 10 min with 80 μl of 0.04% SRB solution prepared in 1% glacial acetic acid. Stain is discarded and plates washed 5 times in 1% glacial acetic acid, then air-dried until completely dry. Stained cell product is dissolved in 150 μl of 10 mM Trizma Base and placed on a shaker for 20 minutes until fully dissolved. Absorbance is read on a Victor V multi-label plate reader (Perkin Elmer, Gaithersburg, Md.).

SW620 = experiment: Cell survival assay (SRB), SW620; assay type: cell-based; settings: Homo sapiens, SW-620, 72 h
Experimental: as §1

tumor cell lines = experiment: cells; assay type: cell-based
Excerpt: as §2, §4

[2] = LOX xenograft model, IV days 1, 5 and 9
[3] = HL60/AR (MRP1) or S1-M1-3.2 (MXR)

CN[C@H](C(=O)N[C@H](C(=O)N(C)[C@H](/C=C(\C)C(=O)O)C(C)C)C(C)(C)C)C(C)(C)c1ccccc1 [Example 129, N,β,β-trimethyl-L-phenylalanyl-N^1-[(1S,2E)-3-carboxy-1-isopropylbut-2-enyl]-N^1,3-dimethyl-L-valinamide]
(RR) relative resistance vs. parental cells (KB-HTI-4.0): (12) | resistance of KB-3-1-derived cell lines selected with Example 129 (KB-HTI-4.0): approximately 12 fold | IC50 (KB-HTI-4.0; KB 3-1, read-out: KB-HTI-4.0 IC50, nM): 6.5 ± 1.6 nM | IC50 (HCT-116; HCT-116, 72 h): 0.7 ± 0.2 nM | IC50 (Moser): 5.3 ± 4.1 nM | inhibition of growth of Lox melanoma xenografts ([1]; 2 mg/kg oral gavage days 1,5,9): 63% | inhibition of growth of Lox melanoma xenografts ([1]; 3 mg/kg oral gavage days 1,5,9): 97% | weight loss ([1]; 2 and 3 mg/kg oral gavage days 1,5,9): less than 10% | growth inhibition of melanoma Lox tumors ([1]; IV in saline, days 1, 5, 9 post-staging, 0.5-1 mg/kg, tumors 1-2 gram): > 95% | maximum effective dose [1, 2]: ~1.6 mg/kg | minimum effective dose [1, 2]: approximately 200 μg/kg | % T/C on day 7 ([1]; Example 129 1.6 mg/kg IV): 12** % | % T/C on day 12 ([1]; Example 129 1.6 mg/kg IV): 2** % | Activity in nude mice animal model (% T/C @ MTD on days 11-15) LOX [1]: 2.5% | resistance of A549.EpoB40 cells (A549.EpoB40): 0.6 fold | IC50 (Lox; LOX): 1.4 ± 0.6 nM | % T/C on day 7 (DLD-1 tumor; Example 129 1.6 mg/kg IV): 22** % | % T/C on day 14 (DLD-1 tumor; Example 129 1.6 mg/kg IV): 20** % | % T/C on day 21 (DLD-1 tumor; Example 129 1.6 mg/kg IV): 44% | % T/C on day 6 (KB-8.5 tumor; Example 129 1.6 mg/kg IV): 25** % | % T/C on day 14 (KB-8.5 tumor; Example 129 1.6 mg/kg IV): 16% | % T/C on day 21 (KB-8.5 tumor; Example 129 1.6 mg/kg IV): 47** % | IC50 (PC3MM2; PC3MM2, 72 h): 1.9 ± 0.1 nM | IC50 (A375): 1.1 ± 0.8 nM | IC50 (HCT-15; HCT-15, colon, SRB staining): 4.2 ± 2.5 nM | IC50 (HCT-15; HCT-15, SRB, vehicle control (DMSO), no MDR-1 inhibitor): 2.2 nM | IC50 (HCT-15; read-out: IC50 + 5.0 uM MDR-1 inhibitor, HCT-15, SRB, + 5.0 uM MDR-1 inhibitor (heptanenitrile of Table 2)): 0.5 nM | IC50 (SW620): 3.6 ± 0.8 nM | IC50 (tumor cell lines; 72 h, read-out: AVERAGE IC50 (nM), average over the panel of tumor cell lines of Table 1; 3 days): 2.1 ± 1.7 nM | resistance detected in cells over-expressing MRP1 or MXR (tumor cell lines; [3]): no resistance | IC50 (tumor cell lines; read-out: IC50 in cell lines expressing moderate to very high MDR1, MX-1W, NCI-H1299, DLD-1, HCT-15): 1.1 to 6.8 nM | IC50 (tumor cell lines; read-out: IC50 in cell lines with undetectable or low level MDR1, NCI-H838, A549, HT-29, HCT-116, KB-3-1): 0.7 to 1.6 nM | IC50 (tumor cell lines; read-out: mean IC50, 34 tumor cell lines (Example 129); N=31 cell lines (paclitaxel)): 2.1 ± 1.7 nM | IC50 (tumor cell lines; read-out: median IC50, 34 tumor cell lines (Example 129); N=31 cell lines (paclitaxel)): 1.7 nM | IC50 (tumor cell lines; read-out: range of IC50, 34 tumor cell lines (Example 129); N=31 cell lines (paclitaxel)): 0.2 to 7.3 nM | IC50 (tumor cell lines; read-out: range of IC50; 34 tumor cell lines (Example 129); N=31 cell lines (paclitaxel)): 0.2 to 7 nM

CC(=O)O[C@H]1C(=O)[C@@]2(C)[C@H]([C@H](OC(=O)c3ccccc3)[C@]3(O)C[C@H](OC(=O)[C@H](O)[C@@H](NC(=O)c4ccccc4)c4ccccc4)C(C)=C1C3(C)C)[C@]1(OC(C)=O)CO[C@@H]1C[C@@H]2O [paclitaxel, reference compound]
IC50 (KB-HTI-4.0; KB-3-1 line made resistant to Example 129, Table 8, read-out: KB-HTI-4.0 IC50): 3.18 ± 0.62 nM | IC50 (HCT-116; 72 h, HCT-116, colon, 3 days, SRB staining, read-out: IC50): 4.5 nM | IC50 (Moser; Moser, colon, 3 days, SRB staining, read-out: IC50): 1590 ± 1990 nM | % T/C on day 7 ([1]; paclitaxel 60 mg/kg IV): 16** % | % T/C on day 12 ([1]; paclitaxel 60 mg/kg IV): 4** % | Activity in nude mice animal model (% T/C @ MTD on days 11-15) LOX [1]: 4% | resistance of A549.EpoB40 cells (A549.EpoB40): 13 fold | IC50 (Lox; Lox, melanoma, 3 days, SRB staining, read-out: IC50): 17.3 ± 5.6 nM | % T/C on day 7 (DLD-1 tumor; paclitaxel 60 mg/kg IV): 71% | % T/C on day 14 (DLD-1 tumor; paclitaxel 60 mg/kg IV): 73% | % T/C on day 6 (KB-8.5 tumor; paclitaxel 60 mg/kg IV): 63** % | % T/C on day 14 (KB-8.5 tumor; paclitaxel 60 mg/kg IV): 86% | IC50 (PC3MM2; 72 h, PC3MM2, prostate, 3 days, SRB staining, read-out: IC50): 8.7 nM | IC50 (A375; A375, melanoma, 3 days, SRB staining, read-out: IC50): 14.1 ± 7.3 nM | IC50 (HCT-15; HCT-15, colon, SRB staining, read-out: IC50): 438 ± 248 nM | IC50 (HCT-15; HCT-15, SRB, + 5.0 uM MDR-1 inhibitor (heptanenitrile of Table 2), read-out: IC50 + 5.0 uM MDR-1 inhibitor): 5 nM | IC50 (HCT-15; HCT-15, SRB, vehicle control (DMSO), no MDR-1 inhibitor, read-out: IC50): 479 nM | IC50 (SW620; SW620, colon, 3 days, SRB staining, read-out: IC50): 18 nM | IC50 (tumor cell lines; 34 tumor cell lines (Example 129); N=31 cell lines (paclitaxel); read-out: mean IC50): 80.2 nM | IC50 (tumor cell lines; 34 tumor cell lines (Example 129); N=31 cell lines (paclitaxel); read-out: median IC50): 9 nM | IC50 (tumor cell lines; 34 tumor cell lines (Example 129); N=31 cell lines (paclitaxel); read-out: range of IC50): 1.8 to 1590 nM | IC50 (tumor cell lines; 72 h, average over the panel of tumor cell lines of Table 1; 3 days; read-out: AVERAGE IC50): 80.2 nM | resistance detected in cells over-expressing MRP1 or MXR (tumor cell lines; [3]): no resistance | IC50 (tumor cell lines; MX-1W, NCI-H1299, DLD-1, HCT-15; read-out: IC50 in cell lines expressing moderate to very high MDR1): 15 to 438 nM | IC50 (tumor cell lines; NCI-H838, A549, HT-29, HCT-116, KB-3-1; read-out: IC50 in cell lines with undetectable or low level MDR1): 3.9 to 8.8 nM
